According to the supplement of paper PMC10307832:

What was measured:
Assay in all cases: relative viability (nuclei count vs DMSO), 5 days (fraction); higher = more cells survive
NCI-H1651 = system: NCI-H1651
Summary of the method: (§1)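 After 5 days of treatment, lung cancer cells in 1536-well plates were fixed and stained in a single step (final 0.05% Triton X-100, 1% formaldehyde, 1 ug/ml Hoechst) and their nuclei counted on 4× images. Treatment had been applied by pin tool the day after seeding as one drug alone or as a fixed anchor-drug dose with five library-drug doses (not always all listed) in √10 steps. Relative viability is the nuclei count of treated wells divided by that of vehicle wells, and values are medians of duplicate plates.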

HCC-15 = system: HCC-15
Summary of the method: as §1

BEN = system: BEN
Summary of the method: as §1

201T = system: 201T
Summary of the method: as §1

NCI-H322M = system: NCI-H322M
Summary of the method: as §1

RERF-LC-KJ = system: RERF-LC-KJ
Summary of the method: as §1

HARA = system: HARA
Summary of the method: as §1

COR-L 105 = system: COR-L 105
Summary of the method: as §1

NCI-H1437 = system: NCI-H1437
Summary of the method: as §1

NCI-H2405 = system: NCI-H2405
Summary of the method: as §1

NCI-H2085 = system: NCI-H2085
Summary of the method: as §1

LCLC-103H = system: LCLC-103H
Summary of the method: as §1

LK-2 = system: LK-2
Summary of the method: as §1

LU99A = system: LU99A
Summary of the method: as §1

LC-2-ad = system: LC-2-ad
Summary of the method: as §1

CAL-12T = system: CAL-12T
Summary of the method: as §1

H3255 = system: H3255
Summary of the method: as §1

HCC-827 = system: HCC-827
Summary of the method: as §1

UMC-11 = system: UMC-11
Summary of the method: as §1

NCI-H23 = system: NCI-H23
Summary of the method: as §1

LXF-289 = system: LXF-289
Summary of the method: as §1

NCI-H2228 = system: NCI-H2228
Summary of the method: as §1

NCI-H1792 = system: NCI-H1792
Summary of the method: as §1

Cc1cnc(-c2cnc(NCCNc3ccc(C#N)cn3)nc2-c2ccc(Cl)cc2Cl)[nH]1 + Cc1cc(Nc2cc(N3CCN(C)CC3)nc(Sc3ccc(NC(=O)C4CC4)cc3)n2)n[nH]1 [Tozasertib] (partner 0.1 µM)
relative viability (NCI-H1651; first compound 0.08 µM): 0.7
relative viability (NCI-H1651; first compound 0.253 µM): 0.648
relative viability (NCI-H1651; first compound 0.8 µM): 0.682
relative viability (NCI-H1651; first compound 2.53 µM): 0.565
relative viability (HCC-15; first compound 0.08 µM): 0.346
relative viability (HCC-15; first compound 0.253 µM): 0.373
relative viability (HCC-15; first compound 0.8 µM): 0.473
relative viability (HCC-15; first compound 2.53 µM): 0.279
relative viability (BEN; first compound 0.08 µM): 0.517
relative viability (BEN; first compound 0.253 µM): 0.609
relative viability (BEN; first compound 0.8 µM): 0.476
relative viability (BEN; first compound 2.53 µM): 0.52
relative viability (201T; first compound 0.08 µM): 0.93
relative viability (201T; first compound 0.8 µM): 0.904
relative viability (201T; first compound 2.53 µM): 0.884
relative viability (NCI-H322M; first compound 0.08 µM): 0.51
relative viability (NCI-H322M; first compound 0.253 µM): 0.464
relative viability (NCI-H322M; first compound 0.8 µM): 0.438
relative viability (NCI-H322M; first compound 2.53 µM): 0.466
relative viability (RERF-LC-KJ; first compound 0.08 µM): 0.544
relative viability (RERF-LC-KJ; first compound 0.253 µM): 0.436
relative viability (RERF-LC-KJ; first compound 0.8 µM): 0.367
relative viability (RERF-LC-KJ; first compound 2.53 µM): 0.382
relative viability (HARA; first compound 0.08 µM): 0.116
relative viability (HARA; first compound 0.253 µM): 0.113
relative viability (HARA; first compound 0.8 µM): 0.116
relative viability (HARA; first compound 2.53 µM): 0.1
relative viability (COR-L 105; first compound 0.08 µM): 0.349
relative viability (COR-L 105; first compound 0.253 µM): 0.327
relative viability (COR-L 105; first compound 0.8 µM): 0.346
relative viability (COR-L 105; first compound 2.53 µM): 0.298
relative viability (NCI-H1437; first compound 0.08 µM): 0.456
relative viability (NCI-H1437; first compound 0.253 µM): 0.444
relative viability (NCI-H1437; first compound 0.8 µM): 0.431
relative viability (NCI-H1437; first compound 2.53 µM): 0.371
relative viability (NCI-H2405; first compound 0.08 µM): 0.764
relative viability (NCI-H2405; first compound 0.253 µM): 0.697
relative viability (NCI-H2405; first compound 0.8 µM): 0.714
relative viability (NCI-H2405; first compound 2.53 µM): 0.505
relative viability (NCI-H2085; first compound 0.08 µM): 0.886
relative viability (NCI-H2085; first compound 0.253 µM): 0.684
relative viability (NCI-H2085; first compound 0.8 µM): 0.56
relative viability (NCI-H2085; first compound 2.53 µM): 0.469
relative viability (LCLC-103H; first compound 0.08 µM): 0.503
relative viability (LCLC-103H; first compound 0.253 µM): 0.417
relative viability (LCLC-103H; first compound 0.8 µM): 0.429
relative viability (LCLC-103H; first compound 2.53 µM): 0.426
relative viability (LK-2; first compound 0.08 µM): 0.164
relative viability (LK-2; first compound 0.253 µM): 0.176
relative viability (LK-2; first compound 0.8 µM): 0.188
relative viability (LK-2; first compound 2.53 µM): 0.148
relative viability (LU99A; first compound 0.08 µM): 0.257
relative viability (LU99A; first compound 0.253 µM): 0.301
relative viability (LU99A; first compound 0.8 µM): 0.256
relative viability (LU99A; first compound 2.53 µM): 0.243
relative viability (LC-2-ad; first compound 0.08 µM): 0.439
relative viability (LC-2-ad; first compound 0.253 µM): 0.392
relative viability (LC-2-ad; first compound 2.53 µM): 0.477
relative viability (CAL-12T; first compound 0.08 µM): 0.346
relative viability (CAL-12T; first compound 0.253 µM): 0.302
relative viability (CAL-12T; first compound 0.8 µM): 0.234
relative viability (CAL-12T; first compound 2.53 µM): 0.211
relative viability (H3255; first compound 0.08 µM): 0.951
relative viability (H3255; first compound 0.253 µM): 0.511
relative viability (H3255; first compound 0.8 µM): 0.593
relative viability (H3255; first compound 2.53 µM): 0.65
relative viability (HCC-827; first compound 0.08 µM): 0.432
relative viability (HCC-827; first compound 0.8 µM): 0.44
relative viability (HCC-827; first compound 2.53 µM): 0.407
relative viability (UMC-11; first compound 0.08 µM): 0.19
relative viability (UMC-11; first compound 0.253 µM): 0.191
relative viability (UMC-11; first compound 0.8 µM): 0.227
relative viability (UMC-11; first compound 2.53 µM): 0.213
relative viability (NCI-H23; first compound 0.08 µM): 0.383
relative viability (NCI-H23; first compound 0.253 µM): 0.26
relative viability (NCI-H23; first compound 0.8 µM): 0.298
relative viability (NCI-H23; first compound 2.53 µM): 0.259
relative viability (LXF-289; first compound 0.08 µM): 0.223
relative viability (LXF-289; first compound 0.253 µM): 0.155
relative viability (LXF-289; first compound 0.8 µM): 0.18
relative viability (LXF-289; first compound 2.53 µM): 0.161
relative viability (NCI-H2228; first compound 0.08 µM): 0.283
relative viability (NCI-H2228; first compound 0.253 µM): 0.267
relative viability (NCI-H2228; first compound 0.8 µM): 0.297
relative viability (NCI-H2228; first compound 2.53 µM): 0.268

Cc1cnc(-c2cnc(NCCNc3ccc(C#N)cn3)nc2-c2ccc(Cl)cc2Cl)[nH]1 + Nc1ncn([C@H]2C[C@H](O)[C@@H](CO)O2)c(=O)n1 [Decitabine] (partner 2 µM)
relative viability (NCI-H1651; first compound 0.08 µM): 0.626
relative viability (NCI-H1651; first compound 0.253 µM): 0.523
relative viability (NCI-H1651; first compound 0.8 µM): 0.587
relative viability (NCI-H1651; first compound 2.53 µM): 0.625
relative viability (HCC-15; first compound 0.08 µM): 0.701
relative viability (HCC-15; first compound 0.253 µM): 0.588
relative viability (HCC-15; first compound 0.8 µM): 0.756
relative viability (HCC-15; first compound 2.53 µM): 0.704
relative viability (BEN; first compound 0.08 µM): 0.768
relative viability (BEN; first compound 0.253 µM): 0.716
relative viability (BEN; first compound 0.8 µM): 0.663
relative viability (BEN; first compound 2.53 µM): 0.8
relative viability (201T; first compound 0.08 µM): 0.817
relative viability (201T; first compound 0.8 µM): 0.828
relative viability (201T; first compound 2.53 µM): 0.849
relative viability (NCI-H322M; first compound 0.08 µM): 0.654
relative viability (NCI-H322M; first compound 0.253 µM): 0.655
relative viability (NCI-H322M; first compound 0.8 µM): 0.567
relative viability (NCI-H322M; first compound 2.53 µM): 0.726
relative viability (RERF-LC-KJ; first compound 0.08 µM): 0.713
relative viability (RERF-LC-KJ; first compound 0.253 µM): 0.702
relative viability (RERF-LC-KJ; first compound 0.8 µM): 0.66
relative viability (RERF-LC-KJ; first compound 2.53 µM): 0.599
relative viability (HARA; first compound 0.08 µM): 0.654
relative viability (HARA; first compound 0.253 µM): 0.471
relative viability (HARA; first compound 0.8 µM): 0.553
relative viability (HARA; first compound 2.53 µM): 0.642
relative viability (COR-L 105; first compound 0.08 µM): 0.639
relative viability (COR-L 105; first compound 0.253 µM): 0.619
relative viability (COR-L 105; first compound 0.8 µM): 0.707
relative viability (COR-L 105; first compound 2.53 µM): 0.49
relative viability (NCI-H1437; first compound 0.08 µM): 0.538
relative viability (NCI-H1437; first compound 0.253 µM): 0.511
relative viability (NCI-H1437; first compound 0.8 µM): 0.558
relative viability (NCI-H1437; first compound 2.53 µM): 0.563
relative viability (NCI-H2405; first compound 0.08 µM): 0.799
relative viability (NCI-H2405; first compound 0.253 µM): 0.734
relative viability (NCI-H2405; first compound 0.8 µM): 0.758
relative viability (NCI-H2405; first compound 2.53 µM): 0.645
relative viability (NCI-H2085; first compound 0.08 µM): 0.535
relative viability (NCI-H2085; first compound 0.253 µM): 0.554
relative viability (NCI-H2085; first compound 0.8 µM): 0.542
relative viability (NCI-H2085; first compound 2.53 µM): 0.572
relative viability (LCLC-103H; first compound 0.08 µM): 0.732
relative viability (LCLC-103H; first compound 0.253 µM): 0.722
relative viability (LCLC-103H; first compound 0.8 µM): 0.751
relative viability (LCLC-103H; first compound 2.53 µM): 0.728
relative viability (LK-2; first compound 0.08 µM): 0.27
relative viability (LK-2; first compound 0.253 µM): 0.275
relative viability (LK-2; first compound 0.8 µM): 0.323
relative viability (LK-2; first compound 2.53 µM): 0.395
relative viability (NCI-H1792; first compound 0.08 µM): 0.564
relative viability (NCI-H1792; first compound 0.253 µM): 0.476
relative viability (NCI-H1792; first compound 0.8 µM): 0.542
relative viability (NCI-H1792; first compound 2.53 µM): 0.469
relative viability (LU99A; first compound 0.08 µM): 0.954
relative viability (LU99A; first compound 0.253 µM): 0.873
relative viability (LU99A; first compound 0.8 µM): 0.938
relative viability (LU99A; first compound 2.53 µM): 0.775
relative viability (LC-2-ad; first compound 0.08 µM): 0.791
relative viability (LC-2-ad; first compound 0.8 µM): 0.885
relative viability (LC-2-ad; first compound 2.53 µM): 0.776
relative viability (H3255; first compound 0.08 µM): 0.765
relative viability (H3255; first compound 0.253 µM): 0.531
relative viability (H3255; first compound 0.8 µM): 0.551
relative viability (H3255; first compound 2.53 µM): 0.567
relative viability (HCC-827; first compound 0.08 µM): 0.328
relative viability (HCC-827; first compound 0.253 µM): 0.299
relative viability (HCC-827; first compound 0.8 µM): 0.326
relative viability (HCC-827; first compound 2.53 µM): 0.287
relative viability (UMC-11; first compound 0.08 µM): 0.727
relative viability (UMC-11; first compound 0.253 µM): 0.533
relative viability (UMC-11; first compound 0.8 µM): 0.314
relative viability (UMC-11; first compound 2.53 µM): 0.668
relative viability (NCI-H23; first compound 0.08 µM): 0.382
relative viability (NCI-H23; first compound 0.253 µM): 0.293
relative viability (NCI-H23; first compound 0.8 µM): 0.323
relative viability (NCI-H23; first compound 2.53 µM): 0.387
relative viability (LXF-289; first compound 0.08 µM): 0.374
relative viability (LXF-289; first compound 0.253 µM): 0.364
relative viability (LXF-289; first compound 0.8 µM): 0.392
relative viability (LXF-289; first compound 2.53 µM): 0.398
